Measured values: PubChem BioAssay (NCI)
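These data come from cells grown in 96-well plates and exposed to compound for 48 hours at five concentrations. At the TGI there is no net growth.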

What was measured:
Experiment in all cases: DTP human tumour cell line panel, 48 h
[1] = tested on: DU-145 prostate
[2] = tested on: CAKI-1 renal
[3] = tested on: BT-549 breast
[4] = tested on: M14 melanoma
[5] = tested on: SK-MEL-2 melanoma
[6] = tested on: TK-10 renal
[7] = tested on: SNB-75 CNS
[8] = tested on: SF-295 CNS
[9] = tested on: A498 renal
[10] = tested on: CCRF-CEM leukemia
[11] = tested on: SW-620 colon
[12] = tested on: A549 NSCLC
[13] = tested on: SF-268 CNS
[14] = tested on: U251 CNS
[15] = tested on: EKVX NSCLC
[16] = tested on: T-47D breast
[17] = tested on: PC-3 prostate
[18] = tested on: SK-OV-3 ovarian
[19] = tested on: K-562 leukemia
[20] = tested on: COLO 205 colon
[21] = tested on: HCC-2998 colon
[22] = tested on: NCI-H226 lung
[23] = tested on: NCI-H522 lung
[24] = tested on: RXF 393 renal
[25] = tested on: ACHN renal
[26] = tested on: MDA-MB-231 breast
[27] = tested on: MCF7 breast
[28] = tested on: OVCAR-5 ovarian
[29] = tested on: SR leukemia
[30] = tested on: HCT-116 colon
[31] = tested on: 786-0 renal
[32] = tested on: MALME-3M melanoma
[33] = tested on: UACC-257 melanoma
[34] = tested on: SK-MEL-5 melanoma
[35] = tested on: RPMI-8226 leukemia
[36] = tested on: LOX IMVI melanoma
[37] = tested on: IGROV1 ovarian
[38] = tested on: UACC-62 melanoma
[39] = tested on: SNB-19 CNS
[40] = tested on: MDA-MB-435
[41] = tested on: OVCAR-8 ovarian
[42] = tested on: NCI-H460 lung
[43] = tested on: SF-539 CNS
[44] = tested on: HT29 colon
[45] = tested on: NCI/ADR-RES ovarian
[46] = tested on: SN12C renal
[47] = tested on: UO-31 renal
[48] = tested on: HOP-62 NSCLC
[49] = tested on: HCT-15 colon
[50] = tested on: NCI-H23 lung
[51] = tested on: OVCAR-4 ovarian
[52] = tested on: MOLT-4 leukemia
[53] = tested on: SK-MEL-28 melanoma
[54] = tested on: HOP-92 NSCLC
[55] = tested on: OVCAR-3 ovarian
[56] = tested on: KM12 colon
[57] = tested on: HL-60(TB) leukemia

With N#Cc1c(-c2ccc([N+](=O)[O-])cc2)cc(-c2ccc(Nc3ccnc4cc(C(F)(F)F)ccc34)cc2)[nH]c1=O the TGI [1] was > 100 µM, the TGI [2] was > 100 µM and the TGI [3] was > 100 µM. The TGI [4] was > 100 µM, the TGI [5] was > 100 µM and the TGI [6] was > 100 µM. For the same compound, the TGI [7] was > 100 µM, the TGI [8] was > 100 µM and the TGI [9] was > 100 µM. For the same compound, the TGI [10] was > 100 µM, the TGI [11] was > 100 µM and the TGI [12] was > 100 µM. For the same compound, the TGI [13] was > 100 µM, the TGI [14] was 21.9 µM and the TGI [15] was > 100 µM. The TGI [16] was > 100 µM, the TGI [17] was > 100 µM and the TGI [18] was > 100 µM. The TGI [19] was > 100 µM, the TGI [20] was 29.1 µM and the TGI [21] was > 100 µM. The TGI [22] was > 100 µM, the TGI [23] was > 100 µM and the TGI [24] was > 100 µM. The TGI [25] was > 100 µM, the TGI [26] was 44.7 µM and the TGI [27] was > 100 µM. The TGI [28] was 40.1 µM, the TGI [29] was > 100 µM and the TGI [30] was 66.1 µM. For the same compound, the TGI [31] was > 100 µM, the TGI [32] was > 100 µM and the TGI [33] was > 100 µM. For the same compound, the TGI [34] was > 100 µM, the TGI [35] was > 100 µM and the TGI [36] was > 100 µM. For the same compound, the TGI [37] was > 100 µM, the TGI [38] was > 100 µM and the TGI [39] was 82.7 µM. The TGI [40] was > 100 µM, the TGI [41] was > 100 µM and the TGI [42] was > 100 µM. For the same compound, the TGI [43] was > 100 µM, the TGI [44] was > 100 µM and the TGI [45] was > 100 µM. For the same compound, the TGI [46] was > 100 µM, the TGI [47] was > 100 µM and the TGI [48] was > 100 µM. For the same compound, the TGI [49] was > 100 µM, the TGI [50] was > 100 µM and the TGI [51] was > 100 µM. The TGI [52] was > 100 µM and the TGI [53] was > 100 µM.
With COc1ccc(C23OCC(Cc4cc(OC)c(OC)cc42)C3COC(C)=O)cc1OC (stereo not given) the TGI [1] was > 100 µM, the TGI [2] was > 100 µM and the TGI [3] was > 100 µM. For the same compound, the TGI [4] was > 100 µM, the TGI [5] was > 100 µM and the TGI [54] was > 100 µM. For the same compound, the TGI [55] was > 100 µM, the TGI [6] was > 100 µM and the TGI [7] was > 100 µM. For the same compound, the TGI [8] was > 100 µM, the TGI [56] was > 100 µM and the TGI [9] was > 100 µM. For the same compound, the TGI [11] was > 100 µM, the TGI [12] was > 100 µM and the TGI [13] was > 100 µM. The TGI [14] was > 100 µM, the TGI [15] was > 100 µM and the TGI [16] was > 100 µM. For the same compound, the TGI [17] was > 100 µM, the TGI [18] was > 100 µM and the TGI [19] was > 100 µM. The TGI [20] was > 100 µM, the TGI [21] was > 100 µM and the TGI [22] was > 100 µM. The TGI [23] was > 100 µM, the TGI [24] was > 100 µM and the TGI [25] was > 100 µM. For the same compound, the TGI [57] was > 100 µM, the TGI [26] was > 100 µM and the TGI [27] was > 100 µM. The TGI [28] was > 100 µM, the TGI [29] was > 100 µM and the TGI [30] was > 100 µM. For the same compound, the TGI [31] was > 100 µM, the TGI [32] was > 100 µM and the TGI [34] was > 100 µM. The TGI [35] was > 100 µM, the TGI [36] was > 100 µM and the TGI [38] was > 100 µM. For the same compound, the TGI [39] was > 100 µM, the TGI [40] was > 100 µM and the TGI [42] was > 100 µM. The TGI [43] was > 100 µM, the TGI [44] was > 100 µM and the TGI [45] was > 100 µM. The TGI [47] was > 100 µM, the TGI [48] was > 100 µM and the TGI [49] was > 100 µM. For the same compound, the TGI [50] was > 100 µM, the TGI [51] was > 100 µM and the TGI [52] was > 100 µM. For the same compound, the TGI [53] was > 100 µM.
